Here are results for 25 compounds from patent US12209081B2 (Katholieke Universiteit Leuven, priority 2020, dated 2025).

Where a name gives a salt, the structure may show the parent alone. Bounds are passed on as bounds.

Sequence of mouse TRPM3α2 (mTRPM3) ion channel (J9SQF3 other isoform, or with tags, fused parts or gaps): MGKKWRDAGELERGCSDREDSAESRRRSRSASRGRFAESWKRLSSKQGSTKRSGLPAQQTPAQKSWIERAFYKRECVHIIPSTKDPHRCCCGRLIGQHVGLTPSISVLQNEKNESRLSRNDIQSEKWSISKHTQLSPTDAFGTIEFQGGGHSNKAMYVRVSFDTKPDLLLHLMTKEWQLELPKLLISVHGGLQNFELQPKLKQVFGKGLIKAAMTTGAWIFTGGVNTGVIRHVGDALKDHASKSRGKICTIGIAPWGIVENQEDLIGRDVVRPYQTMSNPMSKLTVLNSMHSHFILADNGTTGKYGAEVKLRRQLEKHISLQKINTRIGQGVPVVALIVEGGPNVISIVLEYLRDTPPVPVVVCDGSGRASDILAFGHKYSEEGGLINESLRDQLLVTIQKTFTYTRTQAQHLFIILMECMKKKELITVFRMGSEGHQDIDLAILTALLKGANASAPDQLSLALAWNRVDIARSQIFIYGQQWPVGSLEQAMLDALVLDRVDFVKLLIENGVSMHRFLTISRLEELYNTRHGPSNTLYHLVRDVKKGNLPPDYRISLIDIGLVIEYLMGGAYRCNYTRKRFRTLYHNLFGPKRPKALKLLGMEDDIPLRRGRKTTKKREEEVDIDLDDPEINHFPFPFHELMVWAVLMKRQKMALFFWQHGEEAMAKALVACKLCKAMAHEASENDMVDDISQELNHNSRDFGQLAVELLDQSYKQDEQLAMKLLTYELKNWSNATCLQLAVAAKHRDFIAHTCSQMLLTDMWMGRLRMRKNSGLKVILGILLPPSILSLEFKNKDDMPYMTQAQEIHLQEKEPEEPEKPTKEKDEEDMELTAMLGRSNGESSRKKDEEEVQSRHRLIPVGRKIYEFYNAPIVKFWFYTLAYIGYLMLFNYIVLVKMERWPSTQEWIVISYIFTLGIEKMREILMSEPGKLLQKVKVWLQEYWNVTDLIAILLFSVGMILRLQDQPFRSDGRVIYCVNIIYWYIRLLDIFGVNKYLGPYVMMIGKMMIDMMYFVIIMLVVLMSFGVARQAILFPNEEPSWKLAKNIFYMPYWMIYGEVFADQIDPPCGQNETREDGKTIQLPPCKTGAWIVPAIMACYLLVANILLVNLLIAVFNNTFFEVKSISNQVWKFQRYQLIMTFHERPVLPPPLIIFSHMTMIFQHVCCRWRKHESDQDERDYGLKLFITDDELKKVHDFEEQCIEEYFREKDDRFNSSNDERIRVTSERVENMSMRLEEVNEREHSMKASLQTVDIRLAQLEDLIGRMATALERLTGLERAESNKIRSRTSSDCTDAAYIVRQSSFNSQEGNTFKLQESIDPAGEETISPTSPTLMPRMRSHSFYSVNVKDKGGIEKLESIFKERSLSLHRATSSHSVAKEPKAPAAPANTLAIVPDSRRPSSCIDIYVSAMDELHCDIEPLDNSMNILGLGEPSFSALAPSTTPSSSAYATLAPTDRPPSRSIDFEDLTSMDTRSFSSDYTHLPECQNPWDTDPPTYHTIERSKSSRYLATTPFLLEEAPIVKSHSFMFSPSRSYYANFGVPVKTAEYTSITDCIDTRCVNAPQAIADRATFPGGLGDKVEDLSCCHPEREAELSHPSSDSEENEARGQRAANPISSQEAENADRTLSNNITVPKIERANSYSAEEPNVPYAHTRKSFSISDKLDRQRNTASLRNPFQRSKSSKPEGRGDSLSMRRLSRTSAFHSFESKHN
Sequence of TRPM3 (Homo sapiens (Human), UniProt Q9HCF6) (Q9HCF6 whole entry, species assumed): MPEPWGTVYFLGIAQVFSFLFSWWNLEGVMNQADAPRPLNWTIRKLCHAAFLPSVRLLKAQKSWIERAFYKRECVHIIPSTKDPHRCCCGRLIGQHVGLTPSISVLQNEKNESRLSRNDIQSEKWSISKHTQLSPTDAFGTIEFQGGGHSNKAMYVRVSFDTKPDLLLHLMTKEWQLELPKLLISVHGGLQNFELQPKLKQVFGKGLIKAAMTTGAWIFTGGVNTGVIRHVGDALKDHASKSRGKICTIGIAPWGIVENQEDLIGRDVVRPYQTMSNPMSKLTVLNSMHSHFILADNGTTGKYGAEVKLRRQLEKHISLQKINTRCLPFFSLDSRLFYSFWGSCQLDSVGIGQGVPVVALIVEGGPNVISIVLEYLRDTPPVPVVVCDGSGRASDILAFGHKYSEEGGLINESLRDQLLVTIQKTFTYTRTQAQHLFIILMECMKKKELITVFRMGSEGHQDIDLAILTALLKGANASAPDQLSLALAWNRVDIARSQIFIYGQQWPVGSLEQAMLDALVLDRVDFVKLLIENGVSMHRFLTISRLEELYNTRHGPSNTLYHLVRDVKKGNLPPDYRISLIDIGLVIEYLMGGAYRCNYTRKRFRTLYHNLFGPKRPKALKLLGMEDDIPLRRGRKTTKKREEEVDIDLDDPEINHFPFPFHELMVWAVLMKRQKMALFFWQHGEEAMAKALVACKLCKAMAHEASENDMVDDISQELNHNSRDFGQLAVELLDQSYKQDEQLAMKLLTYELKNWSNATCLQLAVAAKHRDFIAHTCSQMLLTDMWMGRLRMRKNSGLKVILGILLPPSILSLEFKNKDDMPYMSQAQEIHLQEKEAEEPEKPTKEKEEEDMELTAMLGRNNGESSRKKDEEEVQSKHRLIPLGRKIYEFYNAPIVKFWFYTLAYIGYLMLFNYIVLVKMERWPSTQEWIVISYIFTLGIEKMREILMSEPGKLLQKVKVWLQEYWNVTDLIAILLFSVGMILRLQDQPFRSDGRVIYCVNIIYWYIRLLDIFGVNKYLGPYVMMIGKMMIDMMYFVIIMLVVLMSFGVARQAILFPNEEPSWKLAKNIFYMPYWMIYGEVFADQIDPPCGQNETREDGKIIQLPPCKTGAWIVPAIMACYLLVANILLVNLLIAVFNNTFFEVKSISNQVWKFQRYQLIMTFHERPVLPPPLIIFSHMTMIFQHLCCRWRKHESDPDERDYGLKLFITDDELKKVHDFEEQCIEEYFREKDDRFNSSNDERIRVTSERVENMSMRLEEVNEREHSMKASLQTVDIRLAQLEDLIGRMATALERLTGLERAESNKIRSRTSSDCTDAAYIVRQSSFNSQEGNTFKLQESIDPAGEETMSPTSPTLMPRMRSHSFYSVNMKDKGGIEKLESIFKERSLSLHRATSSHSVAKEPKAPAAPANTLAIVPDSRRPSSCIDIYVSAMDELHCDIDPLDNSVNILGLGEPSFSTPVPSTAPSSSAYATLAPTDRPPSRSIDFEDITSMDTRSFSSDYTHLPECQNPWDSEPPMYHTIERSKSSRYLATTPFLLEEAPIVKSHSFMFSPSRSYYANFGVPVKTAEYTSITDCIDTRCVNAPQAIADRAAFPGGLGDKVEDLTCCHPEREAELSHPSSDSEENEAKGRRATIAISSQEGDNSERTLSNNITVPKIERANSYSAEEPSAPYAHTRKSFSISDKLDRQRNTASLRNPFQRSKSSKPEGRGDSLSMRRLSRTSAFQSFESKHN

The first assay has as its target TRPM3 (Homo sapiens (Human), UniProt Q9HCF6).
Experiment: not given
As to conditions: Wagner et al., 2008; cited from earlier work.
Turning to `CC(=O)C1CCC2C3CC=C4CC(OS(=O)(=O)O)CCC4(C)C3CCC12C` (centres unmarked) [pregnenolone sulfate, Pregnenolone sulfate], the “activator of TRPM3” value is “potent known activator of TRPM3”.

The next assay has as its system TRPM3.
Experiment: not given
As to conditions: wild type mice vs knock-out TRPM3 mice; cited from earlier work.
As to `CC(=O)C1CCC2C3CC=C4CC(OS(=O)(=O)O)CCC4(C)C3CCC12C` (centres unmarked) [pregnenolone sulfate, Pregnenolone sulfate], the evoked pain result is listed as “evoked pain in wild type mice but not in knock-out TRPM3 mice”.

The next assay has as its system TRPM3.
Experiment: not given
As to conditions: rat pain model; Chen L et al. 2014; cited from earlier work.
As for `O=C1C[C@@H](c2ccc(O)cc2)Oc2cc(O)ccc21` [Liquiritigenin], the “mechanical and cold hyperalgesia” value was “decrease mechanical and cold hyperalgesia”.

The next assay addresses mouse TRPM3α2 (mTRPM3) ion channel (Mus musculus (Mouse), UniProt J9SQF3). The assay is described as follows: TRPM3 ion channel driven Ca2+ uptake, Fluo-4 AM assay, mTRPM3alpha2 overexpressing flip-in HEK293 cells stimulated with pregnenolone sulfate. It counts as cell-based. As to conditions: PS (50 μM) stimulated, cpds. 608-666. An outline of the steps:
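Flip-in HEK293 cells loaded with Fluo-4 AM were added to plates holding compound plus 50 μM pregnenolone sulfate in Ca2+-containing Krebs buffer. Fluorescence (ex 485/em 535 nm) read directly after cell addition; % inhibition relative to PS-stimulated vehicle and positive-control inhibitor.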
For `Cc1ncsc1C(C)Oc1ccc2oc(C)c(C(=O)NC3(CO)CCOCC3)c2c1` (centres unmarked) [cpd 623-En 1], the IC50 – broadly, the concentration that inhibits the measured activity by half – is below 1000 nM.

Still in this assay, the particulars now being: PS (50 μM) stimulated, cpds. 667-751.
`Cc1oc2ccc(OCc3cccnc3N3CCC3)cc2c1C(=O)N[C@@H](CO)C(N)=O` [compound 706, (S)-N-(1-amino-3-hydroxy-1-oxopropan-2-yl)-5-((2-(azetidin-1-yl)pyridin-3-yl)methoxy)-2-methylbenzofuran-3-carboxamide] yielded an IC50 below 1000 nM. Same read-out and setting: in the case of `Cc1ncc(COc2ccc3oc(C)c(C(=O)N[C@@H](CO)C(N)=O)c3c2)cn1` [compound 708, (S)-N-(1-Amino-3-hydroxy-1-oxopropan-2-yl)-2-methyl-5-((2-methylpyrimidin-5-yl)methoxy)benzofuran-3-carboxamide] it was below 1000 nM; in that of `Cc1oc2ccc(OCc3cccnc3OC3CC3)cc2c1C(=O)N[C@@H](CO)C(N)=O` [compound 710, (S)-N-(1-amino-3-hydroxy-1-oxopropan-2-yl)-5-((2-cyclopropoxypyridin-3-yl)methoxy)-2-methylbenzofuran-3-carboxamide], below 1000 nM.

On to `Cc1oc2ccc(OCc3cccnc3OC3CC3)cc2c1C(=O)NC1(CO)CCOCC1` [compound 711, 5-((2-cyclopropoxypyridin-3-yl)methoxy)-N-(4-(hydroxymethyl)tetrahydro-2H-pyran-4-yl)-2-methylbenzofuran-3-carboxamide], for which the IC50 was below 1000 nM. The same measure, in the same setting: as for `Cc1oc2ccc(OCc3ncccn3)cc2c1C(=O)N[C@@H](CO)C(N)=O` [compound 712, (S)-N-(1-Amino-3-hydroxy-1-oxopropan-2-yl)-2-methyl-5-(pyrimidin-2-ylmethoxy)benzofuran-3-carboxamide], the figure is below 1000 nM; as for `Cc1oc2ccc(OCc3cnccn3)cc2c1C(=O)N[C@@H](CO)C(N)=O` [compound 714, (S)-N-(1-Amino-3-hydroxy-1-oxopropan-2-yl)-2-methyl-5-(pyrazin-2-ylmethoxy)benzofuran-3-carboxamide], below 1000 nM; as for `COc1ncccc1COc1ccc2oc(C)c(C(=O)N[C@@H](CO)C(N)=O)c2c1` [compound 715, (S)-N-(1-amino-3-hydroxy-1-oxopropan-2-yl)-5-((2-methoxypyridin-3-yl)methoxy)-2-methylbenzofuran-3-carboxamide], below 1000 nM. The compound `Cc1oc2ccc(OCc3ccncc3)cc2c1C(=O)N[C@@H](CO)C(N)=O` [compound 716, (S)-N-(1-Amino-3-hydroxy-1-oxopropan-2-yl)-2-methyl-5-(pyridin-4-ylmethoxy)benzofuran-3-carboxamide] registered a 50% inhibitory concentration (IC50) below 1000 nM. Same read-out and setting: in the case of `Cc1oc2ccc(OCc3ncccc3C(F)F)cc2c1C(=O)NC1CCNCC1(F)F` (centres unmarked) [compound 717, 5-((3-(Difluoromethyl)pyridin-2-yl)methoxy)-N-(3,3-difluoropiperidin-4-yl)-2-methylbenzofuran-3-carboxamide] it was below 1000 nM. With `Cc1oc2ccc(OCc3ccccn3)cc2c1C(=O)N[C@H](C(N)=O)[C@@H](C)O` [compound 718, N-((2S,3R)-1-amino-3-hydroxy-1-oxobutan-2-yl)-2-methyl-5-(pyridin-2-ylmethoxy)benzofuran-3-carboxamide], the IC50 is below 1000 nM. In the case of `Cc1ncsc1COc1ccc2oc(C)c(C(=O)NC3(C(F)F)CCC3)c2c1` [compound 721, N-(1-(Difluoromethyl)cyclobutyl)-2-methyl-5-((4-methylthiazol-5-yl)methoxy)benzofuran-3-carboxamide], the concentration for half-maximal inhibition (IC50) is below 1000 nM. Take `Cc1oc2ccc(OCc3ccc(F)cn3)cc2c1C(=O)N[C@@H](CO)C(N)=O` [compound 741, (S)-N-(1-Amino-3-hydroxy-1-oxopropan-2-yl)-5-((5-fluoropyridin-2-yl)methoxy)-2-methylbenzofuran-3-carboxamide]: the concentration for half-maximal inhibition (IC50) was below 1000 nM. Still for that read-out and setting: in the case of `Cc1ncsc1COc1ccc2oc(C(F)F)c(C(=O)N[C@@H](CO)C(N)=O)c2c1` [compound 742, (S)-N-(1-amino-3-hydroxy-1-oxopropan-2-yl)-2-(difluoromethyl)-5-((4-methylthiazol-5-yl)methoxy)benzofuran-3-carboxamide] it was below 1000 nM; in that of `Cc1ccc(COc2ccc3oc(C(F)F)c(C(=O)N[C@@H](CO)C(N)=O)c3c2)cn1` [compound 743, (S)-N-(1-Amino-3-hydroxy-1-oxopropan-2-yl)-2-(difluoromethyl)-5-((6-methylpyridin-3-yl)methoxy)benzofuran-3-carboxamide], below 1000 nM. On the same count and under the same terms, in the case of `NC(=O)[C@H](CO)NC(=O)c1c(C(F)F)oc2ccc(OCc3ccccn3)cc12` [compound 744] it was below 1000 nM; in that of `Cc1ncc(COc2ccc3oc(C(F)F)c(C(=O)N[C@@H](CO)C(N)=O)c3c2)s1` [compound 745, (S)-N-(1-amino-3-hydroxy-1-oxopropan-2-yl)-2-(difluoromethyl)-5-((2-methylthiazol-5-yl)methoxy)benzofuran-3-carboxamide], below 1000 nM; in that of `Cc1ncc(COc2ccc3oc(C(F)F)c(C(=O)N[C@@H](CO)C(N)=O)c3c2)o1` [compound 746, (S)-N-(1-amino-3-hydroxy-1-oxopropan-2-yl)-2-(difluoromethyl)-5-((2-methyloxazol-5-yl)methoxy)benzofuran-3-carboxamide], below 1000 nM. The same measure, in the same setting: in the case of `NC(=O)[C@H](CO)NC(=O)c1c(C2CC2)oc2ccc(OCc3ccccn3)cc12` [compound 747, (S)-N-(1-Amino-3-hydroxy-1-oxopropan-2-yl)-2-cyclopropyl-5-(pyridin-2-ylmethoxy)benzofuran-3-carboxamide] it was below 1000 nM. Consider `Cc1ncsc1COc1ccc2oc(C3CC3)c(C(=O)N[C@@H](CO)C(N)=O)c2c1` [compound 748, (S)-N-(1-Amino-3-hydroxy-1-oxopropan-2-yl)-2-cyclopropyl-5-((4-methylthiazol-5-yl)methoxy)benzofuran-3-carboxamide], for which the half-inhibitory concentration (IC50) is below 1000 nM.

On to `Cc1ncc(COc2ccc3oc(C4CC4)c(C(=O)N[C@@H](CO)C(N)=O)c3c2)s1` [compound 749, (S)-N-(1-Amino-3-hydroxy-1-oxopropan-2-yl)-2-cyclopropyl-5-((2-methylthiazol-5-yl)methoxy)benzofuran-3-carboxamide], for which the 50% inhibitory concentration (IC50) was below 1000 nM. For `Cc1ccc(COc2ccc3oc(C4CC4)c(C(=O)N[C@@H](CO)C(N)=O)c3c2)cn1` [compound 750, (S)-N-(1-Amino-3-hydroxy-1-oxopropan-2-yl)-2-cyclopropyl-5-((6-methylpyridin-3-yl)methoxy)benzofuran-3-carboxamide], the IC50 was below 1000 nM.

Compound `Cc1ncc(COc2ccc3oc(C4CC4)c(C(=O)N[C@@H](CO)C(N)=O)c3c2)o1` [compound 751, (S)-N-(1-amino-3-hydroxy-1-oxopropan-2-yl)-2-cyclopropyl-5-((2-methyloxazol-5-yl)methoxy) benzofuran-3-carboxamide] had an IC50 below 1000 nM.
